The results in this text go back to patent US20060188507A1, “Methods for identifying chemotherapeutic resistance in non-hematopoietic tumors” (priority 2005, published 2006).

Common to all, as to format: cell-based, human
Data set [1] has as its system p16^INK4a protein. As to the kind of experiment: SITp16 immunoblot of p16 protein after siRNA transfection, MCF7/AR cells. As to conditions: for decrease in p16 protein level relative to cells transfected with GFP siRNA: MCF7/AR. As for the experimental part:
Next, the cell lines were subjected to a Standardized Immunoblot Test for expression of p16 Protein (“SITp16”). For this test, total cell protein lysates (also called extracts) were prepared according to standard methods (all reagents were from Sigma Chemical Co, St. Louis, Mo.). Briefly, cultured cells were rinsed 2 times with 15 mL PBS and incubated in 15 mL of Cell Dissociation Buffer (available from Sigma Chemical Co, St. Louis, Mo.) at 37° C. for approximately 10 minutes (i.e., or until they detached from the flask). Cells were collected in a 15 mL tube and centrifuged for 5 minutes at room temperature (RT) at 1,000 rpm (800×g). The supernatant was discarded and cells were washed 3 times with PBS at RT. The cell pellet was transferred to a microtube and 500 μL of PBS was added. The cells were centrifuged 5 minutes at 3,000 rpm in an Eppendorf Microfuge. The supernatant was removed by decanting and the pelleted cells were lysed in 50-150 μL of lysis buffer (50 mM NaCl, 50 mM Tris, pH 8 and 4% CHAPS), containing 1 μg/mL each of the proteases inhibitors pepstatin, leupeptin, and benzamidine, and 0.2 mM PMSF), and incubated 5 minutes on ice. The cell lysates were then sonicated with a Vibracell sonicator set at amplitude 40 setting #25 for 3 times 10 seconds with 1 minute incubations on ice between sonications, and stored at −80° C.
The protein concentration of each lysate was determined using the RC DC protein assay kit, according to the manufacturer's instructions (BioRad Laboratories, Hercules, Calif., USA; see also Lowry et al., J. Biol. Chem. 193: 265-275, 1951).
Total cell lysates were thawed, and 100 μg of protein (completed to 50 μL with nanopure water) were mixed with 10 μL of 5× electrophoresis buffer (60 mM Tris/HCl pH 6.8, 25% glycerol, 2% SDS, 14.4 mM β-mercaptoethanol, 0.1 % bromophenol blue) and the samples were heated at 100° C. for 5 minutes and loaded onto 10% SDS-PAGE gels. Resolved proteins were electrophoretically transferred onto nitrocellulose membranes (Hybond, Amercham Pharmacia Biotech) for 2 hours. After blocking the membranes with 5% non-fat milk in PBS overnight at 4° C., primary and secondary antibody incubations were in the same buffer at room temperature for 2 hour and 1 hour, respectively. The HRP substrate used was Supersignal West Pico Chemiluminescent Substrate (Pierce, Rockford, Ill., USA). Monoclonal antibody against p16INK4a (Ab-4, clone JC2) was purchased from Neomarkers (Fremont, Calif., USA) and used at 1:× dilution. Control antibodies included anti-pan-actin (Neomarkers: Ab-5, clone ACTN05, C4) and/or anti-bcl-2 monoclonal antibody (NeoMarkers, Ab-1, Clone 10).
For an siRNA transfection, 1 nmole of the annealed siRNA duplex (the siRNA were provided annealed from the manufacturer Dharmacon Inc., Lafayette, Colo.) was mixed in a tube with 1.4 mL of Opti-MEM reagent (commercially available from InVitrogen Corp., Carlsbad, Calif.). In another tube, 85 μL of Oligofectamine reagent (commercially available from InVitrogen) was mixed with 600 μL of Opti-MEM. The two solutions were combined, mixed gently by inversion and incubated for 20 minutes at room temperature (i.e., 25° C.). The resulting solution was added to the cultured cells drop-wise in a 10 cm dish having approximately 40-50% confluent cells.
The expression levels of p16 protein and mRNA were quantified using the SITp16 and mRLp16 assays as described above. The SITp16 immunoblots were stripped and reblotted with control anti-actin and anti-bcl-2 antibodies as described above, in order to standardize for total protein levels in each sample.
Two different ADR-resistant tumor cell lines (HeLa, […]; MCF7/AR, breast) were transfected with the two different siRNA duplexes, and p16 gene expression levels were evaluated using the SITp16 test, immunoblotting with the p16^INK4a-specific monoclonal antibody, α-p16INK4a (Ab-4, clone 16P04, JC2; Neomarkers).
On the technique in general: Immunoblotting shows a protein as a band on a membrane.

For data set [2], the system named is MCF7/AR cells. As to the kind of experiment: Viability of siRNA-transfected MCF7/AR cells in chemotherapeutic agents. As for the experimental part: For these studies, the methods described in Example 3 for transfecting HeLa and MCF7/AR cells with siRNAs to GFP, p16 siRNA I, or Bcl-2. Forty-eight hours following transfection, the cells were incubated in different concentrations of Cisplatinum, adriamycin (also called doxorubicin), taxol, melphalan, mitoxantrine, mitomycin C, thio tepa, vinblastine, vincristine, and chlorambucil for 48 hours. Following culture in these chemotherapeutic agents, the cells were subjected to a clonogenic assay, as described above in Example 3.

Data set [3] relates to MDA/AR cells. As to the kind of experiment: Viability of siRNA-transfected MDA/AR cells in chemotherapeutic agents. The conditions noted are these: versus p16 mut siRNA transfected cells, 48 h post-transfection plus 48 h drug (FIGS. 24A-26E). As to the method: For these studies, the cells were transfected 48 hours prior to culture for an additional 48 hours in the presence of the chemotherapeutic.

Data set [4] deals with MCF7/AR cells. As to the kind of experiment: Reversal of ADR resistance by p16 siRNA (SITp16 and SART), MCF7/AR cells. As for the experimental part:
The cells are allowed to attach to the plate overnight and then the media is replaced with media containing an different concentrations of ADR (0 nM, 10 nM, 20 nM, 50 nM, 100 nM, 400 nM, 500 nM, 1 μM, 5 μM, and 10 μM) and the cells are then incubated at 37° C. for 4 days. […] The colonies are the counted and the results expressed as the level of ADR resistance in nM (e.g., ≦400 nM), or EC50, in which 50% of the cells were still alive.
The relative effect of siRNA treatment on reversing ADR sensitivity of MCF7/AR cells and on p16 gene expression was assessed using the SITp16 and SART assays in the presence or absence of ADR drug treatment of the cells.

For the substance “p16 siRNA I: siRNA duplex to p16INK4a Exon 1a; sense 5′ CAACGCACCGAAUAGUUACtt 3′, antisense 5′ GUAACUAUUCGGUGCGUUGtt 3′ (sense CAACGCACCGAAUAGUUACTT; antisense GUAACUAUUCGGUGCGUUGTT; chemistry not given here)”, the “decrease in p16 protein level relative to cells transfected with GFP siRNA” value is 80% in data set [1] (48 hours post-transfection), 94% in data set [1] (72 hours post-transfection) and 99% in data set [1] (96 hours after transfection). In data set [1] (MCF-7/AR, transfected 48 hours earlier (FIG. 19A)), the “decrease in p16 protein levels as compared to cells transfected with gfp siRNA or p16mut siRNA” value is listed as 60%. The “persistence of reduction in p16 expression” value in data set [1] (MCF-7/AR, transfected 4 days earlier (FIG. 19B)) was “maintained”. Moreover, the “reduction of p16 protein level relative to control bcl-2 and GFP siRNA-transfected cells” value in data set [1] (MCF-7 AR cells, 72 hours) is reported as “approximately 10 fold”. In data set [2] (versus gfp siRNA (FIG. 22C)), the “viability of transfected cells with vinblastin at high concentrations” value was “reduced viability”. Also, the “viability of transfected cells in the presence of cisplatinum, chlorambucil, and thio tepa at low concentrations” value in data set [2] (versus gfp siRNA (FIGS. 22A, 22D, 22F)) is reported as “reduced viability”. In data set [2] (versus gfp siRNA transfected cells (FIGS. 22B, 22E)), the “viability of transfected cells in the presence of taxol and vincristin” value was “reduced viability”. Further, the “viability of transfected cells in the presence of high concentrations of adriamycin and taxol” value in data set [3] was “reduced viability”. In addition, in data set [4], the “effect on ADR drug sensitivity/resistance” value is “reversed ADR drug sensitivity”.
